Activity data for twelve compounds are collected here from ChEMBL document CHEMBL5442741, “ASAP - In vitro kinase profile” (2024).

Values joined by “and” are separate entries in the source; they are usually repeats but may differ in a detail not shown here. Equal entries are not always repeated.

Assay [1] deals with T1, Mitogen-activated protein kinase kinase kinase 5 (Homo sapiens) (UniProt Q99683).
T1 sequence (whole entry): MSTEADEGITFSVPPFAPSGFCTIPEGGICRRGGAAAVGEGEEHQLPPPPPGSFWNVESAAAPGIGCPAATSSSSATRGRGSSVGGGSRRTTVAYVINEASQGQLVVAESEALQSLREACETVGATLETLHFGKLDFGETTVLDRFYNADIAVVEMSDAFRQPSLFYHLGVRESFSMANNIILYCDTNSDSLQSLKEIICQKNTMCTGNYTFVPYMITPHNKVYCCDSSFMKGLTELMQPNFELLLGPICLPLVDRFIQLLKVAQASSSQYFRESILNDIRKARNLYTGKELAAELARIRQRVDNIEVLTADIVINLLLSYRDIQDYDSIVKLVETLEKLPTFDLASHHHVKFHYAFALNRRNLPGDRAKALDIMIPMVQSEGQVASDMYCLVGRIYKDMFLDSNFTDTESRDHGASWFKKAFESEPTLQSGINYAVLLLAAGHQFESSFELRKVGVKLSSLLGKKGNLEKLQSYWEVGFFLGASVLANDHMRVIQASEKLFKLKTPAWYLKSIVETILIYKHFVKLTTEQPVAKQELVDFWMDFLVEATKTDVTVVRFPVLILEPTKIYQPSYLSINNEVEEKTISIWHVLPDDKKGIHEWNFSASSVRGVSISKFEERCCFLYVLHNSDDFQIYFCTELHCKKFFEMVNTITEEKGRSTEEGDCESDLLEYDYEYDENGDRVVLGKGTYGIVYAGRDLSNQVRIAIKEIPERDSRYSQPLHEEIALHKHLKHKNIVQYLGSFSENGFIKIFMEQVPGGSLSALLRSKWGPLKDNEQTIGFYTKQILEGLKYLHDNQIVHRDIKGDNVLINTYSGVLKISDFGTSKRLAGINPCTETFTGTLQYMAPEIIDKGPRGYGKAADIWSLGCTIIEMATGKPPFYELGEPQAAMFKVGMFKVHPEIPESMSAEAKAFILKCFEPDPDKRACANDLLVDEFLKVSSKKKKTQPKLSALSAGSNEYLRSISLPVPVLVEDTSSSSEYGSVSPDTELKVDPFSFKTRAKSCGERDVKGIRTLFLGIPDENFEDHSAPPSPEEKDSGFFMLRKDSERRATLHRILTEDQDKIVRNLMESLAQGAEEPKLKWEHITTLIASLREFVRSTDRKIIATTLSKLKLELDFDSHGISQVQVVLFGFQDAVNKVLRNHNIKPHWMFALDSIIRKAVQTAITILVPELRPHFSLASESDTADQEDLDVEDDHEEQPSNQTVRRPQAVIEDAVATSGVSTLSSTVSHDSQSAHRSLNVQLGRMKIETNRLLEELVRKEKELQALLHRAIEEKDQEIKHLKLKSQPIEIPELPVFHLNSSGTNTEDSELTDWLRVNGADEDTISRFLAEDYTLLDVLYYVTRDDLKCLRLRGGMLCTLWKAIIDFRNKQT
Briefly: Enzymatic radiometric [Km ATP] KinaseProfiler LeadHunter assay, kinase: ASK1, catalogue number: 14-606KP The assay has been performed by Eurofins Discovery. The conditions noted are these: ATP concentration 200.0 uM, Test compound concentration 10.0 uM.

Assay [2] addresses Ribosomal protein S6 kinase alpha-1 (Homo sapiens) (UniProt Q15418). Description: Enzymatic radiometric [Km ATP] KinaseProfiler LeadHunter assay, kinase: Rsk1, catalogue number: 14-509KP The assay has been performed by Eurofins Discovery. The conditions noted are these: ATP concentration 45.0 uM, Test compound concentration 10.0 uM.
Assay [3] deals with Calcium/calmodulin-dependent protein kinase type 1 (Homo sapiens) (UniProt Q14012). Description: Enzymatic radiometric [Km ATP] KinaseProfiler LeadHunter assay, kinase: CaMKI, catalogue number: 14-663KP The assay has been performed by Eurofins Discovery. The conditions noted are these: ATP concentration 200.0 uM, Test compound concentration 10.0 uM.
Calcium/calmodulin-dependent protein kinase type 1 (Homo sapiens), sequence (Q14012 whole entry, looked up): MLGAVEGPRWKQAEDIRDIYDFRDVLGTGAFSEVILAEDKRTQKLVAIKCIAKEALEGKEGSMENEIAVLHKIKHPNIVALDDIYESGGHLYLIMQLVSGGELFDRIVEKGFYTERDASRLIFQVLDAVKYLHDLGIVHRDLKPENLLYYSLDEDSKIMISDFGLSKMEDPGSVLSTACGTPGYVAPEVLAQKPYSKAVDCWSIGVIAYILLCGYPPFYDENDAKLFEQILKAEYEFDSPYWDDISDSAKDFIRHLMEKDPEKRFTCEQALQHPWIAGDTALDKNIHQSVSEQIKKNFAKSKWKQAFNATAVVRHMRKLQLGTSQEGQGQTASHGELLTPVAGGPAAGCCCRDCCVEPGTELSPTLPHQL

Ribosomal protein S6 kinase alpha-1 (Homo sapiens), sequence (Q15418 whole entry): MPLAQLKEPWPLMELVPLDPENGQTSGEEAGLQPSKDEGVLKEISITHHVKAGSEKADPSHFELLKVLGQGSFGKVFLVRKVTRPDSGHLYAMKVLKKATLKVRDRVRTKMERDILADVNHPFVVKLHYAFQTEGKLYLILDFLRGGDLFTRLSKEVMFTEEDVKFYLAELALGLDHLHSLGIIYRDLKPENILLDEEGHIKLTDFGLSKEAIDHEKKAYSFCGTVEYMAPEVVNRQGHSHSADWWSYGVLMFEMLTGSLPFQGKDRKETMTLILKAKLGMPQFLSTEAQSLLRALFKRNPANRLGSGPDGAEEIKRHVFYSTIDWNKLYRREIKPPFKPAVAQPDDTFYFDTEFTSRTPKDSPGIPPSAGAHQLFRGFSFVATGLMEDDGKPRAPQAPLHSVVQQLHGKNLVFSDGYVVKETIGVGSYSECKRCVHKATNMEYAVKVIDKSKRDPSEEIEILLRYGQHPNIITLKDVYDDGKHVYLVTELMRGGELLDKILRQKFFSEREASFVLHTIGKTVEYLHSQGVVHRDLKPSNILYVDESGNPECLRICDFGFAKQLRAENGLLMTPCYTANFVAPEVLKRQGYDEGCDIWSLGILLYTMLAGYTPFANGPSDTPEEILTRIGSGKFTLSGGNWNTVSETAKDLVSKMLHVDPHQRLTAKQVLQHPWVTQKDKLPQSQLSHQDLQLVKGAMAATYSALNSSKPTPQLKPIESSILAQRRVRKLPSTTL

Consider `COc1ccc([C@H](Cc2nnn[nH]2)NC(=O)c2ncnc3[nH]ccc23)cc1`, for which the Activity in assay [1] was found to be 103%; in assay [2], 102%.

Consider `CC(C)[C@H](Nc1ncnc2[nH]c(-c3cnn(C)c3C#N)cc12)c1ccc2c(n1)OCCO2`, for which the Activity in assay [1] was 106%; in assay [3], 104%; in assay [2], 120%.

`CC(C)[C@@H](Nc1ncnc2[nH]ccc12)c1ccc2c(c1)S(=O)(=O)CCC2`: the Activity in assay [1] amounted to 108%; in assay [3], 94%; in assay [2] it was 92%.

Take `C[C@H](C(=O)O)[C@@H](NC(=O)c1ncnc2[nH]ccc12)c1ccc(Br)cc1`: the Activity in assay [1] worked out at 102%; in assay [3] it was 101%; in assay [2], 88%.

Consider `COc1ccc([C@@H](Cc2nnn[nH]2)NC(=O)c2ncnc3[nH]ccc23)cc1`, for which the Activity in assay [1] amounted to 101%; in assay [3], 100%; in assay [2] it was 98%.

Take `CC(C)[C@@H](Nc1ncnc2[nH]c(C(=O)N[C@@H]3CCN(C)C3)cc12)c1ccc2c(c1)S(=O)(=O)CCC2`: the Activity in assay [1] is 105%; in assay [3], 100%; in assay [2], 94%.

As for `Cn1ncc(-c2cc3c(N[C@@H](c4ccc5c(n4)OCCO5)C(C)(C)C)ncnc3[nH]2)c1C#N`, the Activity in assay [1] was 108%; in assay [3], 87%; in assay [2] it was 136%.

Consider `Cc1nn(C)cc1-c1cc2c(N[C@H](c3ccc4c(c3)S(=O)(=O)CCC4)C(C)C)ncnc2[nH]1`, for which the Activity in assay [1] turned out to be 103%; in assay [3] it was 101%; in assay [2], 110%.

Consider `CC(C)[C@H](Nc1ncnc2[nH]ccc12)c1ccc2c(c1)S(=O)(=O)CCC2`, for which the Activity in assay [1] is 105%; in assay [3] it was 92%; in assay [2], 102%.

Turning to `CC(C)[C@@H](Nc1ncnc2[nH]c(-c3cnn(C)c3C#N)cc12)c1ccc2c(n1)OCCO2`, the Activity in assay [3] was 104% and 95%.

Take `CNC(=O)Cn1cc(-c2cc3c(N[C@@H](c4ccc5c(c4)S(=O)(=O)CCC5)C(C)C)ncnc3[nH]2)cn1`: the results for the Activity in assay [1], in assay [3] and in assay [2] were 103%, 101% and 94%, respectively.

Turning to `CNCc1cc(-c2cc3c(N[C@@H](c4ccc5c(c4)S(=O)(=O)CCC5)C(C)C)ncnc3[nH]2)co1`, the Activity in assay [3] was 87%; in assay [2], 90%.
